Like-named read-outs stand apart in the source and are kept apart here.
Tests used:
[1] = system: P. falciparum male gametocytes; experiment: P. falciparum Dual Gamete Formation Assay (PfDGFA), male readout (exflagellation); format: cell-based, Plasmodium falciparum NF54; conditions: for Activity: hit = >50% inhibition in male or female readout in at least 3 replicates, 0 = no class assigned
How it was run: (§1)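 Two sex-specific readouts come from one well: male exflagellation centres recorded by brightfield video right after activation, and female gametes scored by Cy3-anti-Pfs25 fluorescence after 24 h at 28°C.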

[2] = system: P. falciparum female gametocytes; experiment: P. falciparum Dual Gamete Formation Assay (PfDGFA), female readout (Pfs25-positive female gametes); format: cell-based, Plasmodium falciparum NF54
How it was run: as §1

[3] = PfDGFA at 2µM, 24h preincubation with gametocytes, average of replicates
[4] = PfDGFA at 2µM, 24h preincubation with gametocytes, replicate R1
[5] = PfDGFA at 2µM, 24h preincubation with gametocytes, replicate R3
[6] = PfDGFA at 2µM, 24h preincubation with gametocytes, replicate R4
[7] = number of replicates with >50% inhibition in the male readout, 2µM
[8] = number of replicates with >50% inhibition in the female readout, 2µM
[9] = 2µM, 24h preincubation with gametocytes prior to induction of gametogenesis, average of replicates
[10] = 2µM, 24h preincubation with gametocytes prior to induction of gametogenesis, replicate R1
[11] = 2µM, 24h preincubation with gametocytes prior to induction of gametogenesis, replicate R3
[12] = 2µM, 24h preincubation with gametocytes prior to induction of gametogenesis, replicate R4
[13] = 2µM, 24h preincubation, hits selected on >50% inhibition in the male readout across replicates
[14] = PfDGFA at 2µM, 24h preincubation
[15] = 2µM, 24h preincubation, hits selected on >50% inhibition in the female readout across replicates
[16] = 2µM, 24h preincubation, number of replicates with >50% inhibition in the male readout
[17] = 2µM, 24h preincubation, number of replicates with >50% inhibition in the female readout
[18] = PfDGFA at 2µM, 24h preincubation with gametocytes prior to induction of gametogenesis, replicate R1
[19] = PfDGFA at 2µM, 24h preincubation with gametocytes prior to induction of gametogenesis, replicate R3
[20] = PfDGFA at 2µM, 24h preincubation with gametocytes prior to induction of gametogenesis, replicate R4
[21] = PfDGFA at 2µM, 24h preincubation, average of replicates

Compound	Average inhibition male (%) [1, 9] [%]	% inhibition male (individual replicates) R1 [1, 10] [%]	% inhibition male (individual replicates) R3 [1, 11] [%]	% inhibition male (individual replicates) R4 [1, 12] [%]	Average inhibition female (%) [2, 9] [%]	% inhibition female (individual replicates) R1 [2, 10] [%]	% inhibition female (individual replicates) R3 [2, 11] [%]	% inhibition female (individual replicates) R4 [2, 12] [%]	HitlevelM [1, 16]	HitlevelF [2, 17]	further results
Cc1cccc2nc(-c3ccc(-c4ccc(CN5CCC(CCN6CCCCC6)CC5)cc4)cc3)[nH]c12.O=C(O)C(F)(F)F [TCMDC-133929]											Average inhibition male (%) [1, 3]: 89.3%; % inhibition male (individual replicates) R1 [1, 4]: 91.7%; % inhibition male (individual replicates) R3 [1, 5]: 68.3%; % inhibition male (individual replicates) R4 [1, 6]: 101.6%; HitlevelM [1, 7]: 4; Average inhibition female (%) [2, 3]: 48.2%; % inhibition female (individual replicates) R1 [2, 4]: 36.0%; % inhibition female (individual replicates) R3 [2, 5]: 37.3%; % inhibition female (individual replicates) R4 [2, 6]: 59.9%; HitlevelF [2, 8]: 2
FC(F)(F)c1ccc2[nH]c(-c3ccc(-c4cccc(CN5CCC(CCN6CCCCC6)CC5)c4)cc3)nc2c1.O=C(O)C(F)(F)F [TCMDC-133941]											Average inhibition male (%) [1, 3]: 80.4%; % inhibition male (individual replicates) R1 [1, 4]: 88.3%; % inhibition male (individual replicates) R3 [1, 5]: 55.8%; % inhibition male (individual replicates) R4 [1, 6]: 84.9%; HitlevelM [1, 7]: 4; Average inhibition female (%) [2, 3]: 50.7%; % inhibition female (individual replicates) R1 [2, 4]: 37.2%; % inhibition female (individual replicates) R3 [2, 5]: 33.9%; % inhibition female (individual replicates) R4 [2, 6]: 67.8%; HitlevelF [2, 8]: 2
O=C(O)C(F)(F)F.Oc1ccc(CCNc2nc(NCCCOc3cc(CN4CCCCC4)ccc3F)nc(N3CCNCC3)n2)cc1 [TCMDC-134044]	22.7	35.5	-22.2	28.2	16.2	9.4	-11.0	47.6			HitlevelM [1, 13]: 0; Activity [1, 14]: 0; HitlevelF [2, 15]: 0
Cc1c(Cl)cccc1S(=O)(=O)Nc1ccc(CCN2CCC(N)CC2)cc1.Cl [TCMDC-134083]	39.0	41.2	34.9	36.9	33.7	28.3	44.7	16.4	0	0	
Cl.NC1CCN(CCc2ccc(NS(=O)(=O)c3cccc4ccccc34)cc2)CC1 [TCMDC-134084]	20.4	10.3		7.9	19.4	15.4	22.2	21.1	0	0	
Cl.NC1CCN(CCc2ccc(NS(=O)(=O)c3ccc(-c4ccccc4)cc3)cc2)CC1 [TCMDC-134085]	44.1	43.6	36.7	44.2	47.2	28.9	50.6	70.5	1	2	
COc1ccc(-c2cnc(NCc3ccccc3)nc2)cc1CNC1CCN(C)CC1.O=C(O)C(F)(F)F [TCMDC-134121]	49.5	40.8		53.6	23.3	22.9	24.0	18.0	2	0	
CS(=O)(=O)Cc1ccc(Nc2ncc(Cl)c(Nc3cccnc3C(N)=O)n2)cc1.Cl [TCMDC-134165]											Selectivity Ratio M ([1]; HepG2 Tox50 versus male IC50): 16.00; inhibition at 2 µM ([1]; Plasmodium falciparum, 2µM, 24h preincubation with gametocytes, average of replicates, read-out: Average inhibition male (%)): 92.8%; inhibition at 2 µM ([1]; Plasmodium falciparum, 2µM, 24h preincubation with gametocytes, replicate R1, read-out: % inhibition male (individual replicates) R1): 89.8%; inhibition at 2 µM ([1]; Plasmodium falciparum, 2µM, 24h preincubation with gametocytes, replicate R2, read-out: % inhibition male (individual replicates) R2): 95.7%; inhibition at 2 µM ([1]; Plasmodium falciparum, 2µM, 24h preincubation with gametocytes, replicate R3, read-out: % inhibition male (individual replicates) R3): 93.3%; inhibition at 2 µM ([1]; Plasmodium falciparum, 2µM, 24h preincubation with gametocytes, replicate R4, read-out: % inhibition male (individual replicates) R4): 92.2%; IC50 ([1]; Plasmodium falciparum, PfDGFA, 24 h incubation with gametocytes before induction, exflagellation readout, read-out: Male IC50): 6.25 µM; Selectivity ratio F ([2]; HepG2 Tox50 versus female IC50): 10.00; inhibition at 2 µM ([2]; Plasmodium falciparum, 2µM, 24h preincubation with gametocytes, average of replicates, read-out: Average inhibition female (%)): -4.3%; inhibition at 2 µM ([2]; Plasmodium falciparum, 2µM, 24h preincubation with gametocytes, replicate R1, read-out: % inhibition female (individual replicates) R1): -8.1%; inhibition at 2 µM ([2]; Plasmodium falciparum, 2µM, 24h preincubation with gametocytes, replicate R2, read-out: % inhibition female (individual replicates) R2): -1.5%; inhibition at 2 µM ([2]; Plasmodium falciparum, 2µM, 24h preincubation with gametocytes, replicate R3, read-out: % inhibition female (individual replicates) R3): -18.7%; inhibition at 2 µM ([2]; Plasmodium falciparum, 2µM, 24h preincubation with gametocytes, replicate R4, read-out: % inhibition female (individual replicates) R4): 10.9%; IC50 ([2]; Plasmodium falciparum, PfDGFA, 24 h incubation with gametocytes before induction, female gamete readout, read-out: Female IC50): > 10 µM
CS(=O)(=O)Cc1cccc(Nc2ncc(Cl)c(Nc3cccnc3C(N)=O)n2)c1.Cl [TCMDC-134166]											% inhibition male (individual replicates) R1 [1, 18]: 26.3%; % inhibition male (individual replicates) R3 [1, 19]: 45.1%; % inhibition male (individual replicates) R4 [1, 20]: 42.9%; Average inhibition male (%) [1, 21]: 37.5%; % inhibition female (individual replicates) R1 [2, 18]: 12.6%; % inhibition female (individual replicates) R3 [2, 19]: -16.8%; % inhibition female (individual replicates) R4 [2, 20]: 3.4%; Average inhibition female (%) [2, 21]: 1.1%
CC[C@H](C)CNC(=O)c1ccnc(-c2ccc(CN3CCC(N4CCCC4)CC3)cc2)c1.O=C(O)C(F)(F)F [TCMDC-134250]	-12.4	-12.1	-7.9	-29.8	14.3	14.5	6.5	6.6			HitlevelM [1, 13]: 0; Activity [1, 14]: 0; HitlevelF [2, 15]: 0
CC1CCCC(C)N1C[C@@H](O)CNS(=O)(=O)c1cccc(C(F)(F)F)c1.Cl (some centres unmarked) [TCMDC-134258]	5.6	-0.6	1.0	12.9	4.2	10.4	-24.4	21.9			HitlevelM [1, 13]: 0; Activity [1, 14]: 0; HitlevelF [2, 15]: 0
